Experimental data from publication PMC12668304, “A Triple Threat Against Ovarian Cancer: Os(II)‐Pt(IV)‐Ceritinib Conjugates for Photodynamic Therapy, Chemotherapy, and Immunogenic Cell Death Induction” (Angewandte Chemie (International Ed. in English), 2025).
Read-outs that look alike come from different tables or passages of the source.

Tests used:
A549 cells = assay: (Photo-)cytotoxicity on 2D cell monolayers, resazurin assay; type: cell-based; conditions: for IC50: A549, normoxic, 4 h exposure
Protocol: (§1) The 2D cytotoxicity and phototoxicity profiles of Os‐Pt‐Cer and controls, were evaluated in a panel of cancerous cell lines, including A2780 (ovarian carcinoma), A549 (non‐small cell lung carcinoma), and MCA205 (murine fibrosarcoma), as well as a non‐cancerous retinal pigment epithelial cell line (RPE‐1). Cells were treated with the compounds (0.003–100 µM) for 4 h, either kept in the dark or irradiated at 670 nm (13.5 J cm^− ^2) (Table S4 and Figure S22) or 740 nm (12.6 J cm^− ^2) and viability was assessed 44 h post‐treatment. To verify robustness, the incubation was extended to 72 h. […]
(§2) Human ovarian cancer (A2780) cells and mouse fibrosarcoma cells (MCA205) were cultured in RPMI media. Retinal pigment epithelium (RPE -1) cells were cultured in DMEM/F -12 medium. Lung cancer cells (A549) were cultured in F -12K medium. These cell lines were complemented with 10% of fetal bovine serum, 100 U/mL penicillin -streptomycin mixture, and maintained in a humidified atmosphere […]
(§3) (Photo-)cytotoxicity on 2D cell monolayers
(§4) The cytotoxicity of the compounds was assessed by measuring cell viability using a resazurin assay.
(§5) The cells were seeded in triplicates in 96 well plates with a density of 10 4 cells per well in 100 μL of media. After 24 h, the medium was removed, and the cells were treated with increasing concentrations (0.003 → 100 µM) of the compounds diluted in cell media , achieving a total volume of 100 μL/well.
(§6) The cells were incubated with the compound for 4 h (final incubation time 48 h) or 24 h (final incubation time 72 h). After this time, the media was removed and replaced with 100 μL of fresh medium. For the phototoxicity studies, the cells were exposed to light with an Atlas Photonics LUMOS BIO irradiation system. Each well was constantly irradiated at 670 nm (60 min, 13.50 J·cm-2) or 740 nm (60 min, 12.60 J·cm-2). During the irradiation, the temperature of the plate was maintained at 37 °C. The cells were grown in the incubator for an additional 44 or 48 h, respectively. For the determination of the dark cytotoxicity, the cells were not irradiated and after the medium exchange directly incubated for 44 h.
(§7) After this time, the medium was replaced with fresh medium containing resazurin (0.2 mg/mL). After […]
(§8) 4 h of incubation, the conversion of resazurin into resorufin was determined upon excitation at 540 nm and measurement of its emission at 590 nm using a Cytation 5 Imaging Reader from BioTek. The obtained data was analysed with the GraphPad Prism software […]
(§9) After 24 h of incubation at 37 °C, 5% CO 2, plates were read using a SpectraMaxM2 Microplate Reader ( λexc = 540 nm; λread = 590 nm). Fluorescence data were normalised, and data were fitted using GraphPad Prism Software, and IC 50 was calculated by non - linear regression. Changes in the size and shape of MCTS were monitored every 24 h using Cytation 5 Imaging Reader from BioTek, objective x4.
(§10) Intracellular distribution by confocal fluorescence microscopy
(§11) 10^4 cells/well (A2780 cells) were seeded in complete medium (RPMI) in µ -slide 8 well (Ibidi) (100 µl/well) and left for 24 h to attach to the bottom. Then, the culture medium was removed , and 100 µl of solution of the corresponding complexes (5 µM) was added. The complexes were incubated with the cells for 4 hours. Thereafter, the medium was removed and replaced by RPMI without phenol red , and Hoechst and MitoTracker Green were added at a final concentration of 1 µg/mL. They were incubated with the cells for 30 min in the dark at 37 °C. Images were collected in a sequential mode in a Leica TCS SP8 confocal microscope with a 60x oil immers ion objective, a line average of 4, and a format of […]
(§12) (MTG)→ 500 -550nm, and 488 nm (complexes)→ 680 -730 nm. The confocal pinhole was 1 Airy unit.
(§13) Images were analysed with LAS X Flim FCS software.
(§14) Intracellular distribution by ICP -MS

MCA205 cells = assay: as above; type: cell-based, mouse; conditions: for IC50: MCA205, normoxic, 4 h exposure
Protocol: as §1, §2, §3, §4, §5, §6, §7, §8, §9, §10, §11, §12, §13, §14

[1] = Homo sapiens, dark, total 48 h incubation, read-out: IC50 Dark
[2] = Mus musculus, MCA-205, dark, total 48 h incubation, read-out: IC50 Dark
[3] = dark, total 48 h incubation, read-out: IC50 Dark

| SMILES | PI (IC50 dark/IC50 irradiation 740 nm) (A549 cells; A549) | IC50 (A549 cells; Homo sapiens, 740 nm (60 min, 12.60 J·cm^−2), total 48 h, read-out: IC50 Irrad. 740 nm) | IC50 (A549 cells; [1]) | PI (IC50 dark/IC50 irradiation 740 nm) (MCA205 cells; MCA205) | IC50 (MCA205 cells; Mus musculus, MCA-205, 740 nm (60 min, 12.60 J·cm^−2), total 48 h, read-out: IC50 Irrad. 740 nm) | IC50 (MCA205 cells; [2]) | IC50 (A549 cells; [3]) | IC50 (MCA205 cells; [3]) |
| --- | --- | --- | --- | --- | --- | --- | --- | --- |
| C=Cc1c(C)c2cc3nc(c(CC(=O)O)c4[nH]c(cc5nc(cc1[nH]2)C(C)=C5CC)c(C)c4C(=O)O)[C@@H](CCC(=O)O)[C@@H]3C [Ce6, Chlorin e6] | ≥17 | 5.86 ± 0.82 µM | > 100 µM | ≥53 | 1.88 ± 0.2 µM | > 100 µM | – | – |
| Cc1cc(Nc2ncc(Cl)c(Nc3ccccc3S(=O)(=O)C(C)C)n2)c(OC(C)C)cc1C1CCNCC1 [Ceritinib] | – | – | 3.8 ± 0.09 µM | – | – | 6.97 ± 0.7 µM | – | – |
| O=C1[O][Pt]2([NH][C@@H]3CCCC[C@H]3[NH]2)[O]C1=O [Oxaliplatin] | – | – | – | – | – | – | 2.8 ± 0.13 µM | 0.8 ± 0.09 µM |
